Test results published in patent US20250302862A1, “SMALL RNA DRUG FOR INHIBITING ACTIVITY OF CANCER CELLS” (Institute of Basic Medical Sciences Chinese Academy of …, priority 2022, published 2025).

Tests used:
[1] = tested on: primary lung cancer Kras^LSL-G12Dp53^fl/fl (KP) mouse model; test: Tumor burden of mice with primary lung cancer (HE lung sections); format: in vivo; conditions: 10 nmol daily by gavage for one month, sphingosine(d18:1) delivery system, HE-stained left lung section, vs NC group
Excerpt: (§1) The mouse model of primary lung cancer was Kras^LSL-G12Dp53^fl/fl (KP).
(§2) Mice were weighed and assigned to the negative control group (NC group) and HQi-sRNA-2 group randomly. The NC group was the negative control, in which a sphingosine(d18:1)-NC-sRNA herbal medicine delivery system was constructed from NC-sRNA. The HQi-sRNA-2 group was the experimental group, in which a sphingosine(d18:1)-HQi-sRNA-2 herbal medicine delivery system was constructed from HQi-sRNA-2.
(§3) The herbal medicine delivery system was constructed by heating and mixing 10 nmol of sRNA, 100 ug of sphingosine(d18:1) and 300 ul of sterile enzyme-free water in a water bath at 90° C. for 15 minutes.
Each mouse with a uniform body weight was dosed by gavage. Each mouse was given 10 nmol of HQi-sRNA-2 mimic daily by gavage for one month.
The lungs of mice were collected to prepare pathological sections. The left lung was collected and sliced at the largest surface for every mouse, and stained with HE. The area of tumor in the whole pathological section was counted, the tumor burden was calculated, and statistical analysis was performed.
(§4) Mice were weighed and assigned to the negative control group (NC group), MDM-sRNA-39 group and MDM-sRNA-163 group randomly. The NC group was the negative control, in which a sphingosine(d18:1)-NC-sRNA herbal medicine delivery system was constructed from NC-sRNA. The MDM-sRNA-39 group was an experimental group, in which a sphingosine(d18:1)-MDM-sRNA-39 herbal medicine delivery system was constructed from MDM-sRNA-39. The MDM-sRNA-163 group was an experimental group, in which a sphingosine(d18:1)-MDM-sRNA-163 herbal medicine delivery system was constructed from MDM-sRNA-163.

[2] = tested on: primary lung cancer Kras^LSL-G12Dp53^fl/fl (KP) mouse model; test: Survival of mice with primary lung cancer; format: in vivo; conditions: 10 nmol sRNA in sphingosine(d18:1) delivery system daily by gavage until death, vs NC group
Excerpt: as §1
as §2, with “HQi-sRNA-2 and sphingosine(d18:1).” for “HQi-sRNA-2.”
as §3
Each mouse with a uniform body weight was dosed by gavage. Each mouse was given 10 nmol of HQi-sRNA-2 mimic daily by gavage until death of the mouse.
The survival time of each mouse was recorded, the survival curve was plotted, and statistical analysis was performed.
as §4

Substance | tumor burden of mice with primary lung cancer [1] | survival of mice with primary lung cancer [2]
HQi-sRNA-2: small RNA derived from Scutellaria baicalensis, sequence AUGGUUCGAUUCCGGAGAGGG (listed as RNA, chemistry not given here) | significantly reduced | significantly prolonged
MDM-sRNA-39: small RNA derived from Maytenus hookeri, sequence GGGAUUGUAGUUCAAUUGGUCAGAGCACC (listed as RNA, chemistry not given here) | significantly reduced | significantly prolonged
MDM-sRNA-163: small RNA derived from Maytenus hookeri, sequence UGACUCUAGUCCGACUUUGUGAAAUGACU (listed as RNA, chemistry not given here) | significantly reduced | significantly prolonged
